Laboratory results reported in patent publication US9572813B2, “Antiviral agent” (SHIONOGI & CO., LTD., priority 2001, dated 2017).
Like-named read-outs stand apart in the source and are kept apart here.

Columns and labels:
integrase = integrase (Human immunodeficiency virus type 1 group M subtype B, UniProt P04585); assay: Integrase inhibition assay (microtiter plate strand transfer, substrate DNA/target DNA, anti-digoxigenin ELISA); format: biochemical; details: concentration of the compound at percent inhibition 50%, 30° C. for 1 hour, OD at 405 nm
Procedure: The inhibitory activities against integrase of the compounds in the present invention have been determined by the assay described below.
(1) Preparation of DNA Solutions.
Substrate DNA and target DNA, which sequences were indicated below, were synthesized by Amersham Pharmacia Biotech and dissolved in KTE buffer (composition: 100 mM KCl, 1 mM EDTA, 10 mM Tris-HCl (pH 7.6)) at concentration of 2 pmol/μl and 0.5 pmol/μl, respectively. The DNA solutions were annealed with each complement by slowly cooling after heating.
(2) Calculations of the Percent Inhibitions (the IC50 Values of Test Compounds)
Streptavidin, obtained from Vector Laboratories, was dissolved in 0.1 M carbonate buffer (composition: 90 mM Na2CO3, 10 mM NaHCO3) at concentration of 40 µg/ml. After coating each well of microtiter plates (obtained from NUNC) with 50 μL of the above solution at 4° C. over night, each well was washed twice with PBS (composition: 13.7 mM NaCl, 0.27 mM KCl, 0.43 mM Na2HPO4, 0.14 mM KH2PO4) and blocked with 300 μl of 1% skim milk in PBS for 30 min. Additionally, each well was washed twice with PBS and added 50 μl of substrate DNA solution (0.04 pmol/μl) diluted to one fiftieth with NTE buffer (composition: 1M NaCl, 10 mM Tris-HCl (pH8.0), 1 mM EDTA). The microtiter plates were kept at room temperature for 30 min. Then, each well was washed twice with PBS and once with H2O.
Subsequently, in the each well prepared above were added 45 μl of the reaction buffer prepared from 12 μl of the buffer (composition: 150 mM MOPS (pH 7.2), 75 mM MnCl2, 50 mM 2-mercaptoethanol, 25% glycerol, 500 μg/ml bovine serum albumin-fraction V), 1 μl of target DNA (5 pmol/μl), and 32 μl of the distilled water. Additionally, 6 μl of either a test compound in DMSO or DMSO for positive control (PC) was mixed with the above reaction buffer, then 9 μl of an integrase solution (30 pmol) was added and mixed well. In the well of negative control (NC) was added 9 μl of the integrase dilution buffer (composition: Hepes (pH7.6), 400 mM potassium glutamate, 1 mM EDTA, 0.1% NP-40, 20% glycerol, 1 mM DTT, 4M urea).
The microtiter plates were incubated at 30° C. for 1 hour. The reaction solution was removed and each well was washed twice with PBS. Subsequently, each well of the microtiter plates was filled with 100 μl of anti-digoxigenin antibody labeled with alkaline phosphatase (Sheep Fab fragment: obtained from Boehringer) and incubated at 30° C. for 1 hour. Then, each well was washed twice with 0.05% Tween20 in PBS and once with PBS. Next, 150 μl of the Alkaline phosphatase reaction buffer (composition: 10 mM p-Nitrophenylphosphate (obtained from Vector Laboratories), 5 mM MgCl2, 100 mM NaCl, 100 mM Tris-HCl (pH 9.5)) was added in each well. The microtiter plates were incubated at 30° C. for 2 hours. The optical density (OD) at 405 nm of each well was measured and the percent inhibition was determined by the following expression. The percent inhibition (%)=100[1−{(C abs.−NC abs.)/(PC abs.−NC abs.)}] • C abs.; the OD of the well of the • NC abs.: the OD of the negative control (NC) • PC abs.: the OD of the positive control (PC)
When the percent inhibition (%) is X % at the concentration of x μg/ml and the percent inhibition (%) is Y % at the concentration of y μg/ml, one of which is more than 50% and the other is less than 50%, IC50 can be determined by the following expression. IC50(μg/ml)=x−{(X−50),(x−y)/(X−Y)}
Compound No. in the Table 1 is the same as compound No. of the above example.

| Molecule | IC50 (integrase) [µg/mL] | IC50 (integrase; read-out: IC50 (converted)) [µM] | melting point [°C] |
| --- | --- | --- | --- |
| 3-hydroxy-1-isopropyl-4-(6-phenethylpyrimidine-4-yl)-1,5-dihydropyrrole-2-one [Compound H-7] | 0.68 |  |  |
| CC(C)N1CC(C(=O)c2ccc(Cc3ccc(F)cc3)o2)=C(O)C1=O [Compound A-7, 4-[5-(4-Fluorobenzyl)furan-2-carbonyl]-3-hydroxyl-1-isopropyl-1,5-dihydropyrrole-2-one] |  | 2.21 | 155 to 157 |
| CN1CC(C(=O)c2cccc(Cc3ccc(F)cc3)c2)=C(O)C1=O [Compound A-12-a, 4-[3-(4-Fluorobenzyl)benzoyl]-3-hydroxy-1-methyl-1,5-dihydropyrrole-2-one] |  | 1.01 | 135 to 137 |
| O=C(C1=C(O)C(=O)N(C2CC2)C1)c1ccc(Cc2ccc(F)cc2)o1 [Compound A-17, 1-Cyclopropyl-4-[5-(4-fluorobenzyl)furan-2-carbonyl]-3-hydroxy-1,5-dihydropyrrole-2-one] |  | 2.34 | 158 to 159 |
| CCCCN1CC(C(=O)c2ccc(Cc3ccc(F)cc3)o2)=C(O)C1=O [Compound A-17-c, 1-Butyl-4-[5-(4-fluorobenzyl)furan-2-carbonyl]-3-hydroxy-1,5-dihydropyrrole-2-one] |  | 2.63 |  |
| CN1CC(C(=O)c2occc2Cc2ccc(F)cc2)=C(O)C1=O [Compound A-50, 4-[3-(4-Fluorobenzyl)furan-2-carbonyl]-3-hydroxy-1-methyl-1,5-dihydropyrrole-2-one] |  | 0.507 | 208 to 210 |
| CC(C)Oc1cc(F)ccc1Cc1ccc(C(=O)C2=C(O)C(=O)N(C)C2)o1 [Compound A-141-k, 4-[5-(4-Fluoro-2-isopropoxybenzyl)furan-2-carbonyl]-3-hydroxy-1-methyl-1,5-dihydropyrrole-2-one] |  | 1.82 | 126 to 129 |
| COC(C)(C)c1cc(Cc2ccc(F)cc2)c(C(=O)C2=C(O)C(=O)N(C)C2)o1 [Compound A-158, 4-[3-(4-Fluorobenzyl)-5-(1-methoxy-1-methylethyl)furan-2-carbonyl]-3-hydroxy-1-methyl-1,5-dihydropyrrole-2-one] |  | 1.73 | 144 to 145 |
| CN1CC(c2cc(CCc3ccccc3)ncn2)=C(O)C1=O [Compound B-6-a, 3-Hydroxy-1-methyl-4-(6-phenethylpyrimidine-4-yl)-1,5-dihydropyrrole-2-one] |  | 5.42 | 211 to 213 |
| O=C1C(O)=C(c2cc(CCc3ccccc3)ncn2)CN1C1CCCCC1 [Compound B-6-d, 1-Cyclohexyl-3-hydroxy-4-(6-phenethylpyrimidine-4-yl)-1,5-dihydropyrrole-2-one] |  | 6.6 | 248 to 250 |
| CN1CC(c2cc(OCc3ccccc3)ncn2)=C(O)C1=O [Compound B-12, 4-(6-Benzyloxypyrimidine-4-yl)-3-hydroxy-1-methyl-1,5-dihydropyrrole-2-one] |  | 0.975 | 203 to 204 |
| CN1CC(c2cc(OCc3ccc(F)cc3)ncn2)=C(O)C1=O [Compound B-12-b, 4-[6-(4-Fluorobenzyloxyl)pyrimidine-4-yl]-3-hydroxy-1-methyl-1,5-dihydropyrrole-2-one] |  | 0.666 |  |
| CN1CC(c2ccc(Cc3ccc(F)cc3)cn2)=C(O)C1=O [Compound B-29, 4-[5-(4-Fluorobenzyl)-pyridine-2-yl]-3-hydroxy-1-methyl-1,5-dihydropyrrole-2-one] |  | 0.402 | 204 to 206 |
| CN1CC(c2ncc(OCc3ccc(F)cc3)cn2)=C(O)C1=O [Compound B-68, 4-[5-(4-fluorobenzyloxy)pyrimidine-2-yl]-3-hydroxy-1-methyl-1,5-dihydropyrrole-2-one] |  | 0.698 | 185 to 187 |
| O=c1c(O)c(-c2ccccn2)oc2cccc(OCc3ccc(F)cc3)c12 [Compound C-22, 5-[(4-fluorobenzyl)oxy]-3-hydroxy(2-pyridine-2-yl)-4H-1-benzopyrane-4-one] |  | 1.32 | 213 |
| O=c1c(O)c(-c2nnc(Cc3ccc(F)cc3)o2)oc2ccccc12 [Compound C-26, 2-[5-(4-fluorobenzyl)-[1,3,4]-oxadiazole-2-yl]-3-hydroxy-4H-1-benzopyrane-4-one] |  | 1.06 |  |
| Cn1ncnc1-c1oc2cccc(OCc3ccc(F)cc3)c2c(=O)c1O [Compound C-39, 5-[(4-fluorobenzyl)oxy]-3-hydroxy-2-(2-methyl-2H-[1,2,4]triazole-3-yl)-4H-1-benzopyrane-4-one] |  | 0.626 | 215 to 216 |
| O=c1c(O)c(-c2nnc(Cc3ccc(F)cc3)o2)[nH]c2ccccc12 [Compound D-5, 2-[5-(4-fluorobenzyl)-[1,3,4]oxadiazole-2-yl]-3-hydroxy-1H-quinoline-4-one] |  | 1.33 | > 300 |
| O=C(c1ccc(Cc2ccc(F)cc2)o1)c1occc(=O)c1O [Compound E-8, 2-[5-(4-fluorobenzyl)furan-2-carbonyl]-3-hydroxypyrane-4-one] |  | 0.445 | 157 to 159 |
| Cc1cc(=O)c(O)c(C(=O)c2ccc(Cc3ccc(F)cc3)o2)o1 [Compound E-16, 2-[5-(4-fluorobenzyl)furan-2-carbonyl]-3-hydroxy-6-methylpyrane-4-one] |  | 0.366 | 173 to 175 |
| O=C1CCCC(C(=O)c2ccc(Cc3ccc(F)cc3)o2)=C1O [Compound F-4, 3-[5-(4-fluorobenzyl)furan-2-carbonyl]-2-hydroxy-2-cyclohexene-1-one] |  | 1.81 | 133 to 134 |
| Cc1nc(=O)c(O)c(-c2ccc(Cc3ccc(F)cc3)cn2)[nH]1 [Compound G-7, 6-[5-(4-fluorobenzyl)pyridine-2-yl]-5-hydroxy-2-methyl-1H-pyrimidine-4-one] |  | 1.54 |  |
| CCN1CCC(C(=O)c2ccc(Cc3ccc(F)cc3)o2)=C(O)C1=O [Compound I-4, 1-ethyl-4-[5-(4-fluorobenzyl)furan-2-carbonyl]-3-hydroxy-5,6-dihydro-1H-pyridine-2-one] |  | 1.46 |  |
| Cn1ccc(C(=O)c2ccc(Cc3ccc(F)cc3)o2)c(O)c1=O [Compound J-4, 4-[5-(4-fluorobenzyl)furan-2-carbonyl]-3-hydroxy-1-methyl-1H-pyridine-2-one] |  | 0.794 | 145 to 147 |
| Cn1ccc(-c2nnc(Cc3ccc(F)cc3)o2)c(O)c1=O [Compound K-4, 4-[5-(4-fluorobenzyl)-[1,3,4]oxadiazole-2-yl]-3-hydroxy-1-methyl-1H-pyridine-2-one] |  | 1.89 | 216 to 218 |
| O=C(c1ccc(Cc2ccc(F)cc2)o1)c1[nH]ccc(=O)c1O [Compound L-4, 2-[5-(4-fluorobenzyl)furan-2-carbonyl]-3-hydroxy-1H-pyridine-4-one] |  | 1.56 |  |
| Cc1[nH]cc(C(=O)c2ccc(Cc3ccc(F)cc3)o2)c(=O)c1O [Compound M-6, 5-[5-(4-fluorobenzyl)furan-2-carbonyl]-3-hydroxy-2-methyl-1H-pyridine-4-one] |  | 8.86 | 190 to 192 |
